Assay results: patent US8461183B2, “PPAR agonist compounds, preparation and uses” (Genfit, priority 2008, dated 2013)

Assays:
db/db mouse = assay: Glucose tolerance test in the db/db mouse; type: in vivo; conditions: 30 mpk, treated 9 days, oral glucose 1 g/kg after fasting
Procedure: The aim of this study is to evaluate in vivo the antidiabetic character of the compounds according to the invention, in the db/db mouse (Berger J et al., 1996). The antidiabetic effect of the compounds is evaluated by measuring glycemia and insulinemia after 8 days of treatment. In diabetic animals (as in humans), administration of glucose leads to a significant increase in the plasma level of insulin. This induced hyperinsulinemia causes a lowering of glycemia, which is delayed in insulin-resistant animals, for example in the db/db mouse.
After 9 days, the animals were deprived of food for 16 hours before carrying out the glucose tolerance test. The latter consists of a single administration of glucose after fasting (administered orally at a dose of 1 g/kg). Blood samples were then taken from time to time to study the evolution of plasma glycemia.
Glucose was determined by enzyme assays (bioMérieux-Lyons-France) according to the suppliers recommendations.

[1] = tested on: PPARδ target genes (PDK4, CPT1b, UCP2) in murine myocytes; assay: Expression of PPARδ target genes in murine myocytes (differentiated C2C12 cells); type: cell-based; conditions: 24 hours, Cpd 7 at 0.1, 1, 10 μM, Cpd 24 at 0.2, 2, 20 μM, normalized to 36B4
Procedure: The PPARδ agonist properties previously measured in vitro were evaluated by measuring, in murine myocytes, the expression of genes involved in lipid and carbohydrate metabolism and energy expenditure (PDK4, CPT1b, UCP2). Regulation of expression of these genes, in this cell type, is a direct consequence of the activation of PPARδ by the compounds according to the invention. The greater the increase in expression of the genes, the more the compound according to the invention is a stimulator of metabolism in muscle cells (Dressel U et al., 2003).
The C2C12 murine cells (from ECACC) are cultivated in DMEM medium (Gibco; 41965-039) supplemented with 1% L-glutamine (Gibco; 25030), 1% penicillin/streptomycin (VWR; BWSTL0022/100) and 10% decomplemented fetal calf serum (FCS. Gibco; 10270-106).
The cells are seeded in 24-well plates at a density of 50×10^3 cells/well. At confluence, the medium is replaced with a differentiation medium (base culture medium supplemented with 2% of horse serum (Gibco; 26050-088)) then culture is continued at 37° C. and 5% CO2 for 7 days in order to permit differentiation of the myoblasts into myocytes.
After 6 days of differentiation, the cells are put in a deprivation medium (base culture medium without serum) for 6 hours. The cells are then treated with the compounds according to the invention in the deprivation medium. The compounds according to the invention were tested at doses of 0.1, 1, 10 μM and 0.2, 2 and 20 μM respectively. The compounds according to the invention were dissolved in dimethylsulfoxide (DMSO, Sigma; D5879). The cells are treated for 24 hours at 37° C., 5% CO2. The effects for the compounds tested were compared with the effect of DMSO alone at a concentration of 0.1%.
These procedures were performed on the cells essentially as described in Example 10 (point c) of the Protocols.
The following primer pairs specific to the genes investigated were used: […]

COc1nc(-c2ccc(C(F)(F)F)cc2)ccc1COc1ccc(OCC(=O)O)cc1 [Cpd 24, 2-(4-((2-methoxy-6-(4-(trifluoromethyl)phenyl)pyridin-3-yl)methoxy)-phenoxy)ethanoic acid]
glucose tolerance test (insulin resistance) (db/db mouse): marked decrease in insulin resistance
expression of CPT1b [1]: significant effects of stimulating expression
expression of PDK4 [1]: significant effects of stimulating expression
expression of UCP2 [1]: significant effects of stimulating expression
